# In article PMC12649549, “Sequence Permutation Generated Lysine and Tryptophan-Rich Antimicrobial Peptides with Enhanced Therapeutic Index” (Antibiotics, 2025):
# Where two headings read alike, the source gives them in different places.
# Tests used:
# Gram-positive bacteria = test: Geometric mean MIC and therapeutic index, Gram-positive bacteria; type: cell-based; settings: Gram-positive bacteria; for GM G+ (geometric mean of the MIC values): MH broth, MIC >50 µg/mL counted as 100 µg/mL; for Therapeutic Index (TI) G+: HC10/GM
# Method in brief: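 Selectivity index derived from human red blood cell HC10 relative to geometric mean MIC. Inoculum was 5 × 10^5 CFU/mL in Müller-Hinton or modified LYM broth, and each experiment was repeated independently three times.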
# [1] = system: A. baumannii 14B0097 (Acinetobacter sp., BCRC number 14B0097)
# Method in brief: (§1)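 MICs came from CLSI broth microdilution, with 5 × 10^5 CFU/mL bacteria exposed to peptide at final 0.78–50 µg/mL. Media were MH broth or LYM broth (pH 7.4), the latter also adjusted for salt (NaCl 50–300 mM, MgCl2 0.5–2.5 mM) or acidity (pH 4.5–6.5); triplicate independent experiments.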
# S. aureus ATCC 25923 = system: S. aureus ATCC 25923
# Method in brief: as §1
# S. aureus ATCC 6538 = system: S. aureus ATCC 6538
# Method in brief: as §1
# S. aureus ATCC 33592 = system: S. aureus ATCC 33592
# Method in brief: as §1
# [2] = LYM broth, 0 mM NaCl, 16 h, 37 °C
# [3] = LYM broth, 50 mM NaCl, 16 h, 37 °C
# [4] = LYM broth, 100 mM NaCl, 16 h, 37 °C
# [5] = LYM broth, 200 mM (NaCl), 16 h, 37 °C
# [6] = LYM broth, 300 mM (NaCl), 16 h, 37 °C
# [7] = MH broth, 5 × 10^5 CFU/mL, 16 h, 37 °C, repeated three times
substance,measurement,setting,value
Ac-KWLKWLAKKKKWR-NH2 [Peptide W5K04],GM G+ (geometric mean of the MIC values),Gram-positive bacteria,66.0 µg/mL
same,Therapeutic Index (TI) G+,Gram-positive bacteria,1.6
same,MIC,[1]; [2],1.56 µg/mL
same,MIC,"[1]; LYM broth, 0.5 mM MgCl2",1.56 µg/mL
same,MIC,"[1]; LYM broth, 1.5 mM MgCl2",3.13 µg/mL
same,MIC,"[1]; LYM broth, 2.5 mM MgCl2",3.13 µg/mL
same,MIC,[1]; [3],3.13 µg/mL
same,MIC,[1]; [4],3.13 µg/mL
same,MIC,[1]; [5],12.5 µg/mL
same,MIC,[1]; [6],50 µg/mL
same,MIC,"[1]; LYM broth, pH 4.5",3.13 µg/mL
same,MIC,"[1]; LYM broth, pH 5.5",1.56 µg/mL
same,MIC,"[1]; LYM broth, pH 6.5",1.56 µg/mL
same,MIC,[1]; [7],12.5 µg/mL
same,MIC,S. aureus ATCC 25923; [2],6.25 µg/mL
same,MIC,"S. aureus ATCC 25923; LYM broth, 0.5 mM MgCl2",6.25 µg/mL
same,MIC,"S. aureus ATCC 25923; LYM broth, 1.5 mM MgCl2",6.25 µg/mL
same,MIC,"S. aureus ATCC 25923; LYM broth, 2.5 mM MgCl2",6.25 µg/mL
same,MIC,S. aureus ATCC 25923; [3],12.5 µg/mL
same,MIC,S. aureus ATCC 25923; [4],25 µg/mL
same,MIC,S. aureus ATCC 25923; [5],>50 µg/mL
same,MIC,S. aureus ATCC 25923; [6],>50 µg/mL
same,MIC,"S. aureus ATCC 25923; LYM broth, pH 4.5",12.5 µg/mL
same,MIC,"S. aureus ATCC 25923; LYM broth, pH 5.5",6.25 µg/mL
same,MIC,"S. aureus ATCC 25923; LYM broth, pH 6.5",3.13 µg/mL
same,MIC,S. aureus ATCC 25923; [7],50 µg/mL
same,MIC,S. aureus ATCC 6538; [2],3.13 µg/mL
same,MIC,"S. aureus ATCC 6538; LYM broth, 0.5 mM MgCl2",3.13 µg/mL
same,MIC,"S. aureus ATCC 6538; LYM broth, 1.5 mM MgCl2",6.25 µg/mL
same,MIC,"S. aureus ATCC 6538; LYM broth, 2.5 mM MgCl2",6.25 µg/mL
same,MIC,S. aureus ATCC 6538; [3],6.25 µg/mL
same,MIC,S. aureus ATCC 6538; [4],25 µg/mL
same,MIC,S. aureus ATCC 6538; [5],50 µg/mL
same,MIC,S. aureus ATCC 6538; [6],>50 µg/mL
same,MIC,"S. aureus ATCC 6538; LYM broth, pH 4.5",6.25 µg/mL
same,MIC,"S. aureus ATCC 6538; LYM broth, pH 5.5",6.25 µg/mL
same,MIC,"S. aureus ATCC 6538; LYM broth, pH 6.5",3.13 µg/mL
same,MIC,S. aureus ATCC 6538; [7],25 µg/mL
same,MIC,S. aureus ATCC 33592; [2],25 µg/mL
same,MIC,"S. aureus ATCC 33592; LYM broth, 0.5 mM MgCl2",25 µg/mL
same,MIC,"S. aureus ATCC 33592; LYM broth, 1.5 mM MgCl2",25 µg/mL
same,MIC,"S. aureus ATCC 33592; LYM broth, 2.5 mM MgCl2",25 µg/mL
same,MIC,S. aureus ATCC 33592; [3],25 µg/mL
same,MIC,S. aureus ATCC 33592; [4],50 µg/mL
same,MIC,S. aureus ATCC 33592; [5],>50 µg/mL
same,MIC,S. aureus ATCC 33592; [6],>50 µg/mL
same,MIC,"S. aureus ATCC 33592; LYM broth, pH 4.5",25 µg/mL
same,MIC,"S. aureus ATCC 33592; LYM broth, pH 5.5",25 µg/mL
same,MIC,"S. aureus ATCC 33592; LYM broth, pH 6.5",12.5 µg/mL
same,MIC,S. aureus ATCC 33592; [7],>50 µg/mL
Ac-KWRKWLKWLAKKK-NH2 [Peptide W5K01],GM G+ (geometric mean of the MIC values),Gram-positive bacteria,28.7 µg/mL
same,Therapeutic Index (TI) G+,Gram-positive bacteria,2.5
same,MIC,[1]; [2],1.56 µg/mL
same,MIC,"[1]; LYM broth, 0.5 mM MgCl2",1.56 µg/mL
same,MIC,"[1]; LYM broth, 1.5 mM MgCl2",3.13 µg/mL
same,MIC,"[1]; LYM broth, 2.5 mM MgCl2",3.13 µg/mL
same,MIC,[1]; [3],1.56 µg/mL
same,MIC,[1]; [4],3.13 µg/mL
same,MIC,[1]; [5],3.13 µg/mL
same,MIC,[1]; [6],12.5 µg/mL
same,MIC,"[1]; LYM broth, pH 4.5",3.13 µg/mL
same,MIC,"[1]; LYM broth, pH 5.5",3.13 µg/mL
same,MIC,"[1]; LYM broth, pH 6.5",1.56 µg/mL
same,MIC,[1]; [7],6.25 µg/mL
same,MIC,S. aureus ATCC 25923; [2],3.13 µg/mL
same,MIC,"S. aureus ATCC 25923; LYM broth, 0.5 mM MgCl2",3.13 µg/mL
same,MIC,"S. aureus ATCC 25923; LYM broth, 1.5 mM MgCl2",6.25 µg/mL
same,MIC,"S. aureus ATCC 25923; LYM broth, 2.5 mM MgCl2",6.25 µg/mL
same,MIC,S. aureus ATCC 25923; [3],6.25 µg/mL
same,MIC,S. aureus ATCC 25923; [4],12.5 µg/mL
same,MIC,S. aureus ATCC 25923; [5],50 µg/mL
same,MIC,S. aureus ATCC 25923; [6],>50 µg/mL
same,MIC,"S. aureus ATCC 25923; LYM broth, pH 4.5",3.13 µg/mL
same,MIC,"S. aureus ATCC 25923; LYM broth, pH 5.5",3.13 µg/mL
same,MIC,"S. aureus ATCC 25923; LYM broth, pH 6.5",1.56 µg/mL
same,MIC,S. aureus ATCC 25923; [7],12.5 µg/mL
same,MIC,S. aureus ATCC 6538; [2],3.13 µg/mL
same,MIC,"S. aureus ATCC 6538; LYM broth, 0.5 mM MgCl2",1.56 µg/mL
same,MIC,"S. aureus ATCC 6538; LYM broth, 1.5 mM MgCl2",1.56 µg/mL
same,MIC,"S. aureus ATCC 6538; LYM broth, 2.5 mM MgCl2",3.13 µg/mL
same,MIC,S. aureus ATCC 6538; [3],6.25 µg/mL
same,MIC,S. aureus ATCC 6538; [4],12.5 µg/mL
same,MIC,S. aureus ATCC 6538; [5],12.5 µg/mL
same,MIC,S. aureus ATCC 6538; [6],25 µg/mL
same,MIC,"S. aureus ATCC 6538; LYM broth, pH 4.5",3.13 µg/mL
same,MIC,"S. aureus ATCC 6538; LYM broth, pH 5.5",1.56 µg/mL
same,MIC,"S. aureus ATCC 6538; LYM broth, pH 6.5",1.56 µg/mL
same,MIC,S. aureus ATCC 6538; [7],12.5 µg/mL
same,MIC,S. aureus ATCC 33592; [2],6.25 µg/mL
same,MIC,"S. aureus ATCC 33592; LYM broth, 0.5 mM MgCl2",6.25 µg/mL
same,MIC,"S. aureus ATCC 33592; LYM broth, 1.5 mM MgCl2",6.25 µg/mL
same,MIC,"S. aureus ATCC 33592; LYM broth, 2.5 mM MgCl2",12.5 µg/mL
same,MIC,S. aureus ATCC 33592; [3],6.25 µg/mL
same,MIC,S. aureus ATCC 33592; [4],12.5 µg/mL
same,MIC,S. aureus ATCC 33592; [5],25 µg/mL
same,MIC,S. aureus ATCC 33592; [6],50 µg/mL
same,MIC,"S. aureus ATCC 33592; LYM broth, pH 4.5",6.25 µg/mL
same,MIC,"S. aureus ATCC 33592; LYM broth, pH 5.5",6.25 µg/mL
same,MIC,"S. aureus ATCC 33592; LYM broth, pH 6.5",6.25 µg/mL
same,MIC,S. aureus ATCC 33592; [7],50 µg/mL
Ac-LAKKKKWRKWLKW-NH2 [Peptide W5K09],GM G+ (geometric mean of the MIC values),Gram-positive bacteria,75.8 µg/mL
same,Therapeutic Index (TI) G+,Gram-positive bacteria,1.4
same,MIC,[1]; [2],3.13 µg/mL
same,MIC,"[1]; LYM broth, 0.5 mM MgCl2",3.13 µg/mL
same,MIC,"[1]; LYM broth, 1.5 mM MgCl2",3.13 µg/mL
same,MIC,"[1]; LYM broth, 2.5 mM MgCl2",3.13 µg/mL
same,MIC,[1]; [3],3.13 µg/mL
same,MIC,[1]; [4],12.5 µg/mL
same,MIC,[1]; [5],50 µg/mL
same,MIC,[1]; [6],>50 µg/mL
same,MIC,"[1]; LYM broth, pH 4.5",6.25 µg/mL
same,MIC,"[1]; LYM broth, pH 5.5",3.13 µg/mL
same,MIC,"[1]; LYM broth, pH 6.5",1.56 µg/mL
same,MIC,[1]; [7],25 µg/mL
same,MIC,S. aureus ATCC 25923; [2],3.13 µg/mL
same,MIC,"S. aureus ATCC 25923; LYM broth, 0.5 mM MgCl2",3.13 µg/mL
same,MIC,"S. aureus ATCC 25923; LYM broth, 1.5 mM MgCl2",6.25 µg/mL
same,MIC,"S. aureus ATCC 25923; LYM broth, 2.5 mM MgCl2",6.25 µg/mL
same,MIC,S. aureus ATCC 25923; [3],6.25 µg/mL
same,MIC,S. aureus ATCC 25923; [4],12.5 µg/mL
same,MIC,S. aureus ATCC 25923; [5],50 µg/mL
same,MIC,S. aureus ATCC 25923; [6],>50 µg/mL
same,MIC,"S. aureus ATCC 25923; LYM broth, pH 4.5",6.25 µg/mL
same,MIC,"S. aureus ATCC 25923; LYM broth, pH 5.5",3.13 µg/mL
same,MIC,"S. aureus ATCC 25923; LYM broth, pH 6.5",1.56 µg/mL
same,MIC,S. aureus ATCC 25923; [7],25 µg/mL
same,MIC,S. aureus ATCC 6538; [2],6.25 µg/mL
same,MIC,"S. aureus ATCC 6538; LYM broth, 0.5 mM MgCl2",3.13 µg/mL
same,MIC,"S. aureus ATCC 6538; LYM broth, 1.5 mM MgCl2",3.13 µg/mL
same,MIC,"S. aureus ATCC 6538; LYM broth, 2.5 mM MgCl2",3.13 µg/mL
same,MIC,S. aureus ATCC 6538; [3],6.25 µg/mL
same,MIC,S. aureus ATCC 6538; [4],12.5 µg/mL
same,MIC,S. aureus ATCC 6538; [5],12.5 µg/mL
same,MIC,S. aureus ATCC 6538; [6],50 µg/mL
same,MIC,"S. aureus ATCC 6538; LYM broth, pH 4.5",6.25 µg/mL
same,MIC,"S. aureus ATCC 6538; LYM broth, pH 5.5",3.13 µg/mL
same,MIC,"S. aureus ATCC 6538; LYM broth, pH 6.5",3.13 µg/mL
same,MIC,S. aureus ATCC 6538; [7],>50 µg/mL
same,MIC,S. aureus ATCC 33592; [2],25 µg/mL
same,MIC,"S. aureus ATCC 33592; LYM broth, 0.5 mM MgCl2",25 µg/mL
same,MIC,"S. aureus ATCC 33592; LYM broth, 1.5 mM MgCl2",25 µg/mL
same,MIC,"S. aureus ATCC 33592; LYM broth, 2.5 mM MgCl2",50 µg/mL
same,MIC,S. aureus ATCC 33592; [3],25 µg/mL
same,MIC,S. aureus ATCC 33592; [4],50 µg/mL
same,MIC,S. aureus ATCC 33592; [5],50 µg/mL
same,MIC,S. aureus ATCC 33592; [6],>50 µg/mL
same,MIC,"S. aureus ATCC 33592; LYM broth, pH 4.5",25 µg/mL
same,MIC,"S. aureus ATCC 33592; LYM broth, pH 5.5",12.5 µg/mL
same,MIC,"S. aureus ATCC 33592; LYM broth, pH 6.5",12.5 µg/mL
same,MIC,S. aureus ATCC 33592; [7],>50 µg/mL
